Assay results taken from patent publication US6559170B1, “Pyridine derivatives having fungicidal activity and processes to produce and use same” (Dow AgroScience LLC, priority 1999, dated 2003).

Tests used:
[1] = system: Puccinia recondita—PUCCRT; experiment: Brown rust of wheat, 1-day protectant whole plant test; type: in vivo; settings: 100 ppm spray, 1-day protectant (1DP), wheat cultivar Monon
[2] = system: Erysiphe graminis—ERYSGT; experiment: Powdery Mildew of Wheat, 1-day protectant whole plant test; type: in vivo; settings: 100 ppm spray, 1-day protectant (1DP), wheat cultivar Monon
[3] = system: Phytophthora infestans—PHYTIN; type: in vivo; settings: 100 ppm spray, 1-day protectant (1DP), tomatoes cultivar Rutgers
[4] = system: Leptosphaeria nodorum—LEPTNO; experiment: Glume blotch of wheat, 1-day protectant whole plant test; type: in vivo; settings: 100 ppm spray, 1-day protectant (1DP), wheat cultivar Monon

Structure (SMILES) | PUCCRT percent control of the plant disease compared with untreated, inoculated plants [1] | ERYSGT percent control of the plant disease compared with untreated, inoculated plants [2] | PHYTIN percent control of the plant disease compared with untreated, inoculated plants [3] | melting point | LEPTNO percent control of the plant disease compared with untreated, inoculated plants [4]
CNC(=O)C(=NOC)c1ccccc1COc1ncc(Sc2ccccc2)cc1Cl [Compound 3, 2-Methoxyimino-N-methyl-[2-(3-chloro-5-phenylthio-2-pyridyloxy)methylphenyl]acetamide] | 98% | 85% | 90% | 84 to 86 °C | 90%
CNC(=O)C(=NOC)c1cccc(Cl)c1COc1ccc(Sc2ccc(C)cc2)cn1 [Compound 4, 2-Methoxyimino-N-methyl-{3-chloro-2-[5-(4-methylphenyl)thio-2-pyridyloxy]methylphenyl}acetamide] | 99% | 67% | 89% | 100 to 102 °C | 98%
CNC(=O)C(=NOC)c1cccc(Cl)c1COc1ccc(Sc2ccc(Cl)cc2)cn1 [Compound 5, 2-Methoxyimino-N-methyl-{3-chloro-2-[5-(4-chlorophenyl)thio-2-pyridyloxy]methylphenyl}acetamide] | 100% | 85% | 99% | 116 to 118 °C | 98%
CNC(=O)C(=NOC)c1ccccc1COc1ccc(Sc2ccccc2)cn1 [Compound 6, 2-Methoxyimino-N-methyl-[2-(5-phenylthio-2-pyridyloxy)methylphenyl]acetamide] | 98% | 80% | 90% | 95 to 96 °C | 98%
CCc1ccccc1Sc1cccc(OCc2ccccc2C(=NOC)C(=O)NC)n1 [Compound 33] | 100% | 92% | 100% | – | 98%
CNC(=O)C(=NOC)c1cccc(F)c1COc1cccc(Sc2ccccc2)n1 [Compound 34] | 100% | 85% | 94% | – | 98%
